In patent publication US20250197864A1, “LNCRNA TRANSCRIPTS IN MELANOMAGENESIS” (The Regents of the University of California, priority 2021, published 2025):

Test system: gene expression in D04 melanoma cells
Test: RNA-Seq differential expression analysis (DESeq2)
Assay type: cell-based, human
Conditions: up-regulated list
Method: Total RNA was isolated using the RNeasy mini Kit (QIAGEN) following the manufacturer's protocol. Quality check for extracted RNA was done using 2100 Bioanalyzer (Agilent Technologies, USA) or Tapestation System (Agilent Technologies, USA). […] For samples used for identification of MAPK-responsive lncRNAs, paired-end, 101-bp sequencing was performed by Centrillion Genomic Services (Centrillion Biosciences, USA) on an Illumina HiSeq 2000. For DE gene analysis of ASO-transfected D04 samples, paired-end, 2×150-bp sequencing was performed by Genewiz (USA) on a Illumina HiSeq.
Sequence reads were aligned to the human genome (hg19) using TopHat (Version 2.0.11).
Differential expression (DE) analysis was done using DESeq2. Differentially expressed genes were defined by more than 1.5-fold changes (log 2 >0.58 or <−0.58) in expression with FDR<0.05. GO term analysis was done using DAVID Functional Annotation Clustering analysis.
To examine the biomolecular changes upon TRASH-inhibition in melanoma, D04 cells were treated with TRASH-ASOs (SEQ ID NO:15) and Control-ASOs and RNA was extracted and used for RNA-Seq. […] These GO terms consisted of genes encoding growth factors, tyrosine kinases, G protein coupled receptor subunits, and collagen subunits. Scatter plot diagram showing differential gene expression after TRASH-ASO treatment compared to Control-ASO treatment. (cut-off for significance was adjusted p-value <0.05). Data was obtained from RNA-Seq of D04 melanoma cells, treatment period was three days. (FIG. 5c)

With “GACTGGAGATAATTAA (gapmer, pattern not given here) [SEQ ID NO: 15, GapmeR ASO targeting AC004540.4 (TRASH), exon region of both isoforms; used for in vitro experiments]” the “log2FoldChange HIST3H2A” value (ENSG00000181218) was 0.6762, the “log2FoldChange GPR3” value (ENSG00000181773) was 0.5989 and the “log2FoldChange IBA57” value (ENSG00000181873) was 0.6496. For the same sequence, the “log2FoldChange KCNJ14” value (ENSG00000182324) was 0.8416, the “log2FoldChange MEX3B” value (ENSG00000183496) was 0.7229 and the “log2FoldChange SLC35F3” value (ENSG00000183780) was 0.8791. The “log2FoldChange TXNRD2” value (ENSG00000184470) was 0.5869, the “log2FoldChange OSBP2” value (ENSG00000184792) was 1.106 and the “log2FoldChange SDR42E1” value (ENSG00000184860) was 0.9762. For the same sequence, the “log2FoldChange MAFF” value (ENSG00000185022) was 0.6847, the “log2FoldChange SOCS1” value (ENSG00000185338) was 0.6402 and the “log2FoldChange PMEL” value (ENSG00000185664) was 0.9831. The “log2FoldChange MYBL1” value (ENSG00000185697) was 0.6266, the “log2FoldChange PCLO” value (ENSG00000186472) was 0.6974 and the “log2FoldChange MT1X” value (ENSG00000187193) was 0.7581. The “log2FoldChange MAGEH1” value (ENSG00000187601) was 0.7858, the “log2FoldChange ZFP69B” value (ENSG00000187801) was 0.7093 and the “log2FoldChange ZP3” value (ENSG00000188372) was 0.8099. The “log2FoldChange C22orf34” value (ENSG00000188511) was 0.661, the “log2FoldChange GJB3” value (ENSG00000188910) was 1.136 and the “log2FoldChange GJB5” value (ENSG00000189280) was 1.088. The “log2FoldChange SH2D5” value (ENSG00000189410) was 1.08, the “log2FoldChange PLEKHG4” value (ENSG00000196155) was 0.6321 and the “log2FoldChange CD55” value (ENSG00000196352) was 0.645. For the same sequence, the “log2FoldChange NUDT11” value (ENSG00000196368) was 0.6654, the “log2FoldChange AC009022.1” value (ENSG00000196696) was 0.6881 and the “log2FoldChange S100A2” value (ENSG00000196754) was 0.5809. The “log2FoldChange SLC6A17” value (ENSG00000197106) was 1.129, the “log2FoldChange ZNF860” value (ENSG00000197385) was 0.5877 and the “log2FoldChange VEPH1” value (ENSG00000197415) was 0.5803. For the same sequence, the “log2FoldChange ZNF841” value (ENSG00000197608) was 0.6523, the “log2FoldChange SERPINB2” value (ENSG00000197632) was 0.8127 and the “log2FoldChange PDCD1LG2” value (ENSG00000197646) was 1.192. The “log2FoldChange FAM49A” value (ENSG00000197872) was 0.7378, the “log2FoldChange HRNR” value (ENSG00000197915) was 0.6084 and the “log2FoldChange CSF2RA” value (ENSG00000198223) was 1.103. For the same sequence, the “log2FoldChange CD247” value (ENSG00000198821) was 1.07, the “log2FoldChange HSD3BP5” value (ENSG00000198857) was 0.8606 and the “log2FoldChange LINC01291” value (ENSG00000204792) was 0.9824. For the same sequence, the “log2FoldChange KRT81” value (ENSG00000205426) was 0.8139, the “log2FoldChange TRBC2” value (ENSG00000211772) was 0.6815 and the “log2FoldChange ANG” value (ENSG00000214274) was 1.047. The “log2FoldChange FER1L6” value (ENSG00000214814) was 0.6181, the “log2FoldChange UBE2QL1” value (ENSG00000215218) was 0.6007 and the “log2FoldChange PLXNA4” value (ENSG00000221866) was 1.101. For the same sequence, the “log2FoldChange RNU2-63P” value (ENSG00000222724) was 0.6055, the “log2FoldChange ROR1-AS1” value (ENSG00000223949) was 0.9732 and the “log2FoldChange ZMIZ1-AS1” value (ENSG00000224596) was 0.9113. The “log2FoldChange AC017002.1” value (ENSG00000224959) was 0.6679, the “log2FoldChange AL354740.1” value (ENSG00000225339) was 0.7567 and the “log2FoldChange CFLAR-AS1” value (ENSG00000226312) was 0.8124. The “log2FoldChange AC016831.1” value (ENSG00000226380) was 0.8375, the “log2FoldChange ERVMER34-1” value (ENSG00000226887) was 0.9222 and the “log2FoldChange AC020571.1” value (ENSG00000229056) was 0.6243. The “log2FoldChange AL589880.1” value (ENSG00000229939) was 0.6572, the “log2FoldChange AL590666.2” value (ENSG00000229953) was 0.9636 and the “log2FoldChange LINC01293” value (ENSG00000230836) was 1.066. For the same sequence, the “log2FoldChange LINC00704” value (ENSG00000231298) was 0.7366, the “log2FoldChange AL603650.1” value (ENSG00000232355) was 1.015 and the “log2FoldChange LINC02535” value (ENSG00000234155) was 1.054. For the same sequence, the “log2FoldChange PINLYP” value (ENSG00000234465) was 0.7137, the “log2FoldChange RPL13AP20” value (ENSG00000234498) was 1.162 and the “log2FoldChange C19orf81” value (ENSG00000235034) was 0.9948. The “log2FoldChange LINC00941” value (ENSG00000235884) was 0.9292, the “log2FoldChange PNMA6A” value (ENSG00000235961) was 0.8869 and the “log2FoldChange AL354719.2” value (ENSG00000236345) was 1.16. For the same sequence, the “log2FoldChange GGT8P” value (ENSG00000236969) was 1.181, the “log2FoldChange AL138828.1” value (ENSG00000237596) was 1.06 and the “log2FoldChange OXCT2P1” value (ENSG00000237624) was 1.01. The “log2FoldChange SPATA3-AS1” value (ENSG00000238062) was 1.082, the “log2FoldChange AC026250.1” value (ENSG00000245522) was 0.9507 and the “log2FoldChange SBF2-AS1” value (ENSG00000246273) was 0.9574. For the same sequence, the “log2FoldChange AC104066.1” value (ENSG00000248375) was 0.8941, the “log2FoldChange LINC02021” value (ENSG00000249846) was 1.04 and the “log2FoldChange AC091173.1” value (ENSG00000251127) was 1.149. For the same sequence, the “log2FoldChange SMG1P6” value (ENSG00000254634) was 1.045, the “log2FoldChange ZNF10” value (ENSG00000256223) was 0.6255 and the “log2FoldChange C17orf100” value (ENSG00000256806) was 0.644. For the same sequence, the “log2FoldChange AC073611.1” value (ENSG00000257605) was 0.6207, the “log2FoldChange LINC01579” value (ENSG00000258754) was 0.7555 and the “log2FoldChange AC013652.1” value (ENSG00000259345) was 0.6859. For the same sequence, the “log2FoldChange AC011468.1” value (ENSG00000260160) was 0.8721, the “log2FoldChange LINC02170” value (ENSG00000260896) was 0.7455 and the “log2FoldChange LINC00622” value (ENSG00000260941) was 0.6079. For the same sequence, the “log2FoldChange EPPK1” value (ENSG00000261150) was 0.7148, the “log2FoldChange LINC01029” value (ENSG00000265843) was 0.6081 and the “log2FoldChange PCAT19” value (ENSG00000267107) was 1.193.
